Drawing on patent US12534469B2 (CHILDREN'S HOSPITAL MEDICAL CENTER, priority 2020, dated 2026), this text covers IC50 for 20 compounds.

What all share (format): biochemical
One experiment concerns the target T1, IRAK1 (Homo sapiens, UniProt P51617).
T1 construct: purchased Reaction Biology (RBC HotSpot Kinase Assay)
Put plainly: RBC HotSpot Kinase Assay, IRAK1. The text has this: (§1) This assay uses the isolated kinase enzyme. This assay is very useful for determining competition of the inhibitor for ATP and/or substrates and for measuring the kinetics of enzyme inhibition. […] Unlike kinase binding assays that measure competition for ATP, the HotSpot Kinase Assay is a functional assay that measures catalytic activity; as such it measures relative functional potency regardless of the mechanism of enzyme inhibition. This assay uses the form of the various enzymes that are easiest to express, which may not necessarily be the form of the enzyme that exist in the cell. (Sometimes the carboxy terminus has been truncated to aid in expression, or, if it is a receptor kinase, the enzyme itself is isolated from the other parts of the receptor that are involved in regulating kinase activity.)
(§2) The reagent used was as follows: Base Reaction buffer; 20 mM Hepes (pH 7.5), 10 mM MgCl2, 1 mM EGTA, 0.01% Brij35, 0.02 mg/ml BSA, 0.1 mM Na3VO4, 2 mM DTT, 1% DMSO. Required cofactors were added individually to each kinase reaction.
(§3) The reaction procedure was as follows: • 1) Substrates were prepared in freshly prepared Reaction Buffer. • 2) Any required cofactors were delivered to the substrate solution above. • 3) Kinase was delivered into the substrate solution and gently mixed. • 4) Compounds were delivered in 100% DMSO into the kinase reaction mixture by Acoustic technology (Echo550; nanoliter range), followed by incubation for 20 min at room temp. • 5) ^33P-ATP was delivered into the reaction mixture to initiate the reaction. • 6) The mixture was incubated for 2 hours at room temperature. • 7) Kinase activity was detected by P81 filter-binding method.

The next experiment has as its target T2, FLT3 (Homo sapiens, UniProt P36888).
T2 construct: purchased Reaction Biology (RBC HotSpot Kinase Assay)
T2 sequence (P36888 564-958 limits assumed): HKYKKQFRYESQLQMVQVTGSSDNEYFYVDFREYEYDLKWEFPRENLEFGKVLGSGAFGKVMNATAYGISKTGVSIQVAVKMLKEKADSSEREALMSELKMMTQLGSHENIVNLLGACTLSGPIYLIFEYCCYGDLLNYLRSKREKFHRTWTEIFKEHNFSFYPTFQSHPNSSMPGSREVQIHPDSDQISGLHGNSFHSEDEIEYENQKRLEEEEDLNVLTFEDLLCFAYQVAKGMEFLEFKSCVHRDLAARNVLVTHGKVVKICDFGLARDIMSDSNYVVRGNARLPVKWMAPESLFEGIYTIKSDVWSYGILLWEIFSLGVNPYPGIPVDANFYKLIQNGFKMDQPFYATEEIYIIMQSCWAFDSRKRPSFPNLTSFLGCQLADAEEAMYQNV
Put plainly: RBC HotSpot Kinase Assay, FLT3.
Description: as §1, §2, §3

For the next experiment, the target named is T3, IRAK4 (Homo sapiens, UniProt Q9NWZ3).
T3 sequence (Q9NWZ3 1-460): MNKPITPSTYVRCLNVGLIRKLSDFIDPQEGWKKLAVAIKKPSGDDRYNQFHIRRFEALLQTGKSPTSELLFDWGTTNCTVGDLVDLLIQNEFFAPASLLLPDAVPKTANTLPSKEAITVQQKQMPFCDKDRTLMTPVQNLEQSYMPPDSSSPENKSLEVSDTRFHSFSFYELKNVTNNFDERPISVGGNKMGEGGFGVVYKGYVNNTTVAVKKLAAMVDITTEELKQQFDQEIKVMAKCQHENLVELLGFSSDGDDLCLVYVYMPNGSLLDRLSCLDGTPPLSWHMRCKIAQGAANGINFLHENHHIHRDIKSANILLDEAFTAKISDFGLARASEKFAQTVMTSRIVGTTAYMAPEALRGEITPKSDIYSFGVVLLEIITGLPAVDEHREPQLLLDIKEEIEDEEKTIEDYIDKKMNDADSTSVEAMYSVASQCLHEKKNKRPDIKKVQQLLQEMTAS
Put plainly: RBC HotSpot Kinase Assay, IRAK4. Details: purchased Reaction Biology (RBC HotSpot Kinase Assay).
Description: as §1, §2, §3

T1 sequence (P51617 whole entry): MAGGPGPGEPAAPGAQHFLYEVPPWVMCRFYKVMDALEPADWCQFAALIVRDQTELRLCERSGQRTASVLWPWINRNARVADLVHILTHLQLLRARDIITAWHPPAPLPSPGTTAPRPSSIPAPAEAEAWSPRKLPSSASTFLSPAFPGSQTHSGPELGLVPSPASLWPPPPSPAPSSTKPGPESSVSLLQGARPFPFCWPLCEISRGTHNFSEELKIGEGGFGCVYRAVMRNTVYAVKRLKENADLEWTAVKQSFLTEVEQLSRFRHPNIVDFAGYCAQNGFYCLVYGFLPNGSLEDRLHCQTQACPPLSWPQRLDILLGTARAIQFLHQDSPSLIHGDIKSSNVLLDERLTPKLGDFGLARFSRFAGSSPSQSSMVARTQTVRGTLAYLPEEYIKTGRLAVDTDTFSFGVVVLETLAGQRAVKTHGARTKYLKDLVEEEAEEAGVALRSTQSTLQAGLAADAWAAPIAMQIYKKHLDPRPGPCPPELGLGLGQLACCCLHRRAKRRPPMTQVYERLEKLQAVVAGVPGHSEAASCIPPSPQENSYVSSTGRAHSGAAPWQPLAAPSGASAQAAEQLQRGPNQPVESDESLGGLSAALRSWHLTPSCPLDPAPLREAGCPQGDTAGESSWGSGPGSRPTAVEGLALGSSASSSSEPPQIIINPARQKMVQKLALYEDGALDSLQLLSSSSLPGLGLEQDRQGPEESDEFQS

Consider `CC(C)n1cc(-c2ccc3ncc(-c4cccc(NC5CCC6(CNC6)C5)n4)n3n2)cn1` (stereo not drawn) [Compound 46, N-(6-(6-(1-isopropyl-1H-pyrazol-4-yl)imidazo[1,2-b]pyridazin-3-yl)pyridin-2-yl)-2-azaspiro[3.4]octan-6-amine], for which the figures for the half-inhibitory concentration (IC50) against IRAK1, against FLT3 and at IRAK4 were 2.18 µM, 0.006 µM and 0.985 µM, respectively.
Turning to `c1ccc(-n2cc(-c3ccc4ncc(-c5cccc(NC6CCC7(CNC7)C6)n5)n4n3)cn2)cc1` (stereo not drawn) [Compound 47, N-(6-(6-(1-phenyl-1H-pyrazol-4-yl)imidazo[1,2-b]pyridazin-3-yl)pyridin-2-yl)-2-azaspiro[3.4]octan-6-amine], the half-maximal inhibitory concentration (IC50) against IRAK1 is over 10 µM; against FLT3, 0.019 µM; against IRAK4, 3.2 µM.
For `c1cc(NC2CCC3(CNC3)C2)nc(-c2cnc3ccc(-c4cnn(C5CCOCC5)c4)nn23)c1` (stereo not drawn) [Compound 48, N-(6-(6-(1-(tetrahydro-2H-pyran-4-yl)-1H-pyrazol-4-yl)imidazo[1,2-b]pyridazin-3-yl)pyridin-2-yl)-2-azaspiro[3.4]octan-6-amine] the same measures were over 10 µM, 0.012 µM and 4.08 µM.
As to `Cn1cc(-c2ccc3ncc(-c4cccc(NC5CCC6(CNC6)C5)n4)n3n2)cn1` (stereo not drawn) [Compound 49, N-(6-(6-(1-methyl-1H-pyrazol-4-yl)imidazo[1,2-b]pyridazin-3-yl)pyridin-2-yl)-2-azaspiro[3.4]octan-6-amine], the 50% inhibitory concentration (IC50) against IRAK1 is 1.2 µM; at FLT3, 0.002 µM; against IRAK4 it was 0.204 µM.
As for `Cc1oncc1-c1ccc2ncc(-c3cccc(NC4CCC5(CNC5)C4)n3)n2n1` (stereo not drawn) [Compound 50, N-(6-(6-(5-methylisoxazol-4-yl)imidazo[1,2-b]pyridazin-3-yl)pyridin-2-yl)-2-azaspiro[3.4]octan-6-amine], the IC50 against IRAK1 came to 1.06 µM; against FLT3, 0.008 µM; against IRAK4, 2.67 µM.
In the case of `FC1(F)CNCC1Nc1cccc(-c2cnc3ccc(-c4cnn5ncccc45)nn23)n1` (stereo not drawn) [Compound 54, N-(4,4-difluoropyrrolidin-3-yl)-6-(6-(pyrazolo[1,5-b]pyridazin-3-yl)imidazo[1,2-b]pyridazin-3-yl)pyridin-2-amine], the 50% inhibitory concentration (IC50) is 1.69 µM against IRAK1, under 0.0005 µM against FLT3 and 0.008 µM on IRAK4.
Turning to `Fc1cc(F)c2c(-c3ccc4ncc(-c5cccc(NC6CNCC6(F)F)n5)n4n3)cnn2c1` (stereo not drawn) [Compound 55, 6-(6-(4,6-difluoropyrazolo[1,5-a]pyridin-3-yl)imidazo[1,2-b]pyridazin-3-yl)-N-(4,4-difluoropyrrolidin-3-yl)pyridin-2-amine], the IC50 was 6.84 µM against IRAK1, 0.016 µM at FLT3 and 0.113 µM against IRAK4.
With `FC1(F)CNCC1Nc1cccc(-c2cnc3ccc(-c4cnn5ccccc45)nn23)n1` (stereo not drawn) [Compound 56, N-(4,4-difluoropyrrolidin-3-yl)-6-(6-(pyrazolo[1,5-a]pyridin-3-yl)imidazo[1,2-b]pyridazin-3-yl)pyridin-2-amine], the IC50 on IRAK1 stood at 0.08 µM; against FLT3, 0.0008 µM; against IRAK4 it was 0.001 µM.
With `FC1(F)CNCC1Nc1cccc(-c2cnc3ccc(-c4cnn5c4CCCC5)nn23)n1` (stereo not drawn) [Compound 59, N-(4,4-difluoropyrrolidin-3-yl)-6-(6-(4,5,6,7-tetrahydropyrazolo[1,5-a]pyridin-3-yl)imidazo[1,2-b]pyridazin-3-yl)pyridin-2-amine], the half-maximal inhibitory concentration (IC50) at IRAK1 worked out at 0.621 µM; on FLT3, 0.002 µM; on IRAK4, 0.012 µM.
Turning to `CC1(C)Cc2c(-c3ccc4ncc(-c5cccc(NC6CNCC6(F)F)n5)n4n3)cnn2C1` (stereo not drawn) [Compound 60, N-(4,4-difluoropyrrolidin-3-yl)-6-(6-(5,5-dimethyl-5,6-dihydro-4H-pyrrolo[1,2-b]pyrazol-3-yl)imidazo[1,2-b]pyridazin-3-yl)pyridin-2-amine], the IC50 on IRAK1 turned out to be 0.274 µM; on FLT3, 0.002 µM; at IRAK4, 0.004 µM.
With `c1cc(NC2CC3(CNC3)C2)nc(-c2cnc3ccc(-c4cnn5ccccc45)nn23)c1` [Compound 61, N-(6-(6-(pyrazolo[1,5-a]pyridin-3-yl)imidazo[1,2-b]pyridazin-3-yl)pyridin-2-yl)-2-azaspiro[3.3]heptan-6-amine], the IC50 came to 0.349 µM against IRAK1, 0.001 µM against FLT3 and 0.026 µM on IRAK4.
Take `c1cc(NC2CC3(CCNC3)C2)nc(-c2cnc3ccc(-c4cnn5ccccc45)nn23)c1` (stereo not drawn) [Compound 62, N-(6-(6-(pyrazolo[1,5-a]pyridin-3-yl)imidazo[1,2-b]pyridazin-3-yl)pyridin-2-yl)-6-azaspiro[3.4]octan-2-amine]: the figures for the IC50 against IRAK1, at FLT3 and against IRAK4 were 0.403 µM, under 0.0005 µM and 0.016 µM, respectively.
Take `c1cc(NC2CCC3(CNC3)C2)nc(-c2cnc3ccc(-c4cnn5ccccc45)nn23)c1` (stereo not drawn) [Compound 63, N-(6-(6-(pyrazolo[1,5-a]pyridin-3-yl)imidazo[1,2-b]pyridazin-3-yl)pyridin-2-yl)-2-azaspiro[3.4]octan-6-amine]: the 50% inhibitory concentration (IC50) against IRAK1 is 0.269 µM; against FLT3 it was under 0.0005 µM; on IRAK4, 0.028 µM.
With `F[C@H]1CNC[C@@H]1Nc1cccc(-c2cnc3ccc(C4CC4)nn23)n1` [Compound 69, 6-(6-cyclopropylimidazo[1,2-b]pyridazin-3-yl)-N-((3S,4S)-4-fluoropyrrolidin-3-yl)pyridin-2-amine], the IC50 against IRAK1 was 3.97 µM; on FLT3, 0.003 µM; on IRAK4 it was 0.045 µM.
Regarding `O[C@H]1CNC[C@@H]1Nc1cccc(-c2cnc3ccc(C4CC4)nn23)n1` [Compound 70, (3S,4S)-4-((6-(6-cyclopropylimidazo[1,2-b]pyridazin-3-yl)pyridin-2-yl)amino)pyrrolidin-3-ol], the IC50 turned out to be 5.19 µM against IRAK1, 0.018 µM at FLT3 and 0.586 µM against IRAK4.
For the compound `FC(F)(F)[C@H]1CNC[C@@H]1Nc1cccc(-c2cnc3ccc(C4CC4)nn23)n1` [Compound 71, 6-(6-cyclopropylimidazo[1,2-b]pyridazin-3-yl)-N-((3R,4S)-4-(trifluoromethyl)pyrrolidin-3-yl)pyridin-2-amine], the concentration for half-maximal inhibition (IC50) on IRAK1 is 2.65 µM; on FLT3 it was 0.0008 µM; on IRAK4, 0.036 µM.
For `FC(F)[C@H]1CNC[C@@H]1Nc1cccc(-c2cnc3ccc(C4CC4)nn23)n1` [Compound 72, 6-(6-cyclopropylimidazo[1,2-b]pyridazin-3-yl)-N-((3R,4S)-4-(difluoromethyl)pyrrolidin-3-yl)pyridin-2-amine] the same measures were 3.59 µM, 0.001 µM and 0.036 µM.
Consider `F[C@@H]1CNCC[C@H]1Nc1cccc(-c2cnc3ccc(C4CC4)nn23)n1` [Compound 73, 6-(6-cyclopropylimidazo[1,2-b]pyridazin-3-yl)-N-((3R,4R)-3-fluoropiperidin-4-yl)pyridin-2-amine], for which the values for the IC50 on IRAK1, at FLT3 and against IRAK4 were 1.83 µM, 0.01 µM and 0.292 µM, respectively.
On the same counts, the results for `CO[C@H]1CNC[C@@H]1Nc1cccc(-c2cnc3ccc(C4CC4)nn23)n1` [Compound 74, 6-(6-cyclopropylimidazo[1,2-b]pyridazin-3-yl)-N-((3S,4S)-4-methoxypyrrolidin-3-yl)pyridin-2-amine] are 5.86 µM, 0.004 µM and 0.148 µM.
Consider `c1cc(N[C@@H]2CCCNC2)nc(-c2cnc3ccc(C4CC4)nn23)c1` [Compound 76, (R)-6-(6-cyclopropylimidazo[1,2-b]pyridazin-3-yl)-N-(piperidin-3-yl)pyridin-2-amine], for which the 50% inhibitory concentration (IC50) on IRAK1 was found to be 3.14 µM; against FLT3, 0.0006 µM; against IRAK4, 0.345 µM.
